Data reported in patent US4739067A, “4-(1,2,5,6-tetrahydro-1-alkyl-3-pyridinyl)-2-thiazolamines and 4-(hexahydro-1-alkyl-3-pyridinyl)-2-thiazolamines” (priority 1986, dated 1988).
Read-outs that look alike come from different tables or passages of the source.

How the values were obtained:
[1] = tested on: Locomotor Activity in Mouse; assay: Inhibition of Locomotor Activity in Mouse (Mouse Activity and Screen Test Procedure); type: in vivo; conditions: read-out: ED50, Inhibition of Locomotor Activity in Mouse
Excerpt: The effects of representative compounds of the present invention as antipsychotic agents was established by the Mouse Activity and Screen Test Procedure described in Pharmacol. Biochem. Behav. 1978 (8) 97, herein incorporated by reference.
Inhibition of Locomotor Activity in Mouse

Haloperidol Receptor = biological target: T1, Haloperidol Receptor (Bos taurus, UniProt P20288); assay: Haloperidol Receptor Binding (dopaminergic agents); conditions: read-out: % Inhibition (Haloperidol Receptor Binding)
T1 construct: from tissue
T1 sequence (P20288 whole entry): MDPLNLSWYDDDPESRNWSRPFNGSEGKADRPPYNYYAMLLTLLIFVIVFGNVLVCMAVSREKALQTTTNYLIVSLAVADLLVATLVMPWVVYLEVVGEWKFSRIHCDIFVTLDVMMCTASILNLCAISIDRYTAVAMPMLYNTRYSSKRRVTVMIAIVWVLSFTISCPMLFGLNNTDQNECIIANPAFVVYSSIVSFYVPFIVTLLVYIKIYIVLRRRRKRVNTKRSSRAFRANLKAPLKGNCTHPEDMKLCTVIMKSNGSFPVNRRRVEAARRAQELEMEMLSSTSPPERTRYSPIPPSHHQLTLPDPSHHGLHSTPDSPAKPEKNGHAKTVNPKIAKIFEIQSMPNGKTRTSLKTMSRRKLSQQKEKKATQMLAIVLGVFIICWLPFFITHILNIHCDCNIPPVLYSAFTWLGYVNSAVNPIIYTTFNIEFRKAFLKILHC
Excerpt: The method for determining the effectiveness of the compounds of the instant invention as dopaminergic agents is explained in Mol. Pharmacol., 1976 (12) 800 herein incorporated by reference.

[2] = tested on: Spontaneous Hypertensive Rat; assay: Antihypertensive action, Spontaneous Hypertensive Rat; type: in vivo; conditions: 30 mg/kg, PO
Description: The methodology for testing the antihypertensive action of the compounds of the invention is described in Am. J. Med. Sci., 1970 (259)257, herein incorporated by reference. These experiments are considered standard tests in mammals and are indicative of utility for treatment of similar diseases in humans.
Spontaneous Hypertensive Rat (30 mg/kg, PO)

| SMILES | inhibition at 1 µM (Haloperidol Receptor; at 10^-6 M) | ED50 [1] | further results |
| --- | --- | --- | --- |
| CCCN1CCC=C(c2csc(NC(C)=O)n2)C1 [N-[4-(1,2,5,6-Tetrahydro-1-propyl-3-pyridinyl)-2-thiazolyl]-acetamide] | 0% | 30 mg/kg |  |
| CCCN1CCC=C(c2csc(N)n2)C1 [drawing 5] |  |  | Decrease in Blood Pressure ([2]; duration 1 hour): 20%; Decrease in Blood Pressure ([2]; duration up to 6 hours): 10-15%; Duration (of decrease in blood pressure) ([2]; of the 10-15% decrease): up to 6 hours; Duration (of decrease in blood pressure) ([2]; of the 20% decrease): 1 h |
| CC(C)CCN1CCC=C(c2csc(N)n2)C1 [drawing 6] |  |  | Decrease in Blood Pressure ([2]; duration up to 10 hours): 12-20%; Duration (of decrease in blood pressure) ([2]; of the 12-20% decrease): up to 10 hours |
| CCCN1CCCC(c2csc(NC(C)=O)n2)C1 (stereo not drawn) [N-[4-(1-propyl-3-piperidyl)-2-thiazolyl]acetamide] | 9% | 30 mg/kg |  |
| CCCCCN1CCC=C(c2csc(NC)n2)C1 [N-methyl-4-(1,2,5,6-tetrahydro-1-pentyl-3-pyridinyl)-2-thiazolamine] |  | < 10 mg/kg |  |
| CCCN1CCC=C(c2csc(NC)n2)C1 [N-Methyl-4-(1,2,5,6-tetrahydro-1-propyl-3-pyridinyl)-2-thiazolamine] |  | 10 mg/kg |  |
| CCCCCN1CCC=C(c2csc(N(C)C(C)=O)n2)C1 [N-methyl-N-[4-(1,2,5,6-tetrahydro-1-pentyl-3-pyridinyl)-2-thiazolyl[-acetamide] |  | 6.4 mg/kg |  |
| CCCCCCCN1CCC=C(c2csc(N)n2)C1 [III (double bond) R=R'=H; R"=(CH2)6 CH3, 4-(1,2,5,6-Tetrahydro-1-heptyl-3-pyridinyl)-2-thiazolamine] |  | 10.4 mg/kg |  |
| Nc1nc(C2=CCCN(CCc3ccccc3)C2)cs1 [III (double bond) R=R'=H; R"=(CH2)2 Ph, 4-[1,2,5,6-Tetrahydro-1-(2-phenylethyl)-3-pyridinyl]-2-thiazolamine] |  | 18.1 mg/kg | inhibition at 1 µM (Haloperidol Receptor): 16% |
| CCCCCN1CCC=C(c2csc(NC(C)=O)n2)C1 [N-[4-(1,2,5,6-Tetrahydro-1-pentyl-3-pyridinyl)-2-thiazolyl]acetamide] | 0% | 10 mg/kg |  |
| CCCN1CCC=C(c2csc(N(C)C(C)=O)n2)C1 [N-methyl-N-[4-(1,2,5,6-tetrahydro-1-propyl-3-pyridinyl)-2-thiazolyl]-acetamide] |  | 39 mg/kg |  |
| CCCN1CCCC(c2csc(N)n2)C1 (stereo not drawn) [III (single bond) R=R'=H; R"=(CH2)2 CH3, 4-(1-Propyl-3-piperidyl)-2-thiazolamine] |  | 10 mg/kg | inhibition at 1 µM (Haloperidol Receptor): 15% |

Further lines, with some results ahead:

| inhibition at 1 µM (Haloperidol Receptor; at 10^-6 M) | SMILES | ED50 [1] | further results |
| --- | --- | --- | --- |
| 26% | CCCCCN1CCC=C(c2csc(N)n2)C1 [III (double bond) R=R'=H; R"=(CH2)4 CH3, 4-(1,2,5,6-Tetrahydro-1-pentyl-3-pyridinyl)-2-thiazolamine] | < 10 mg/kg |  |
| 40% | C=CCN1CCC=C(c2csc(N)n2)C1 [III (double bond) R=R'=H; R"=CH2 CH=CH2, 4-(1,2,5,6-Tetrahydro-1-allyl-3-pyridinyl)-2-thiazolamine] | 3 mg/kg |  |
| 66% | CCCN1CCC=C(c2csc(N)n2)C1 [III (double bond) R=R'=H; R"=(CH2)2 CH3, 4-(1,2,5,6-Tetrahydro-1-propyl-3-pyridinyl)-2-thiazolamine] | 2.9 mg/kg |  |
| 50% | CN1CCC=C(c2csc(N)n2)C1 [III (double bond) R=R'=H; R"=CH3, 4-(1,2,5,6-Tetrahydro-1-methyl-3-pyridinyl)-2-thiazolamine] | 30 mg/kg |  |
| 57% | CCCCN1CCC=C(c2csc(N)n2)C1 [III (double bond) R=R'=H; R"=(CH2)3 CH3, 4-(1,2,5,6-Tetrahydro-1-butyl-3-pyridinyl)-2-thiazolamine] | 7.3 mg/kg |  |
| 49% | CCN1CCC=C(c2csc(N)n2)C1 [III (double bond) R=R'=H; R"=CH2 CH3, 4-(1,2,5,6-Tetrahydro-1-ethyl-3-pyridinyl)-2-thiazolamine] | > 30 mg/kg |  |
| 65% | CC(C)CCN1CCC=C(c2csc(N)n2)C1 [4-[1,2,5,6-Tetrahydro-1-(3-methylbutyl)-3-pyridinyl]-2-thiazolamine] | 8.7 mg/kg |  |
| 88% | CCCCCCN1CCC=C(c2csc(N)n2)C1 [III (double bond) R=R'=H; R"=(CH2)5 CH3, 4-(1,2,5,6-Tetrahydro-1-hexyl-3-pyridinyl)-2-thiazolamine] | > 30 mg/kg |  |
| 35% | CCOCCN1CCC=C(c2csc(N)n2)C1 [4-[1-(2-Ethoxyethyl)-1,2,5,6-tetrahydro-3-pyridinyl]-2-thiazolamine] | 30 mg/kg |  |
